Test results from patent publication US6410792B1, “Amide derivatives and methods for using the same as selective neuropeptide Y receptor antagonists” (Bayer Corporation, priority 1997, dated 2002).
Where two headings read alike, the source gives them in different places.

Assays:
Human NPY5 receptor = target: T1, Human NPY5 receptor (Homo sapiens, UniProt Q15761); experiment: Human NPY5 receptor binding assay ([125I]PYY, membrane protein)
T1 sequence (Q15761 1-445): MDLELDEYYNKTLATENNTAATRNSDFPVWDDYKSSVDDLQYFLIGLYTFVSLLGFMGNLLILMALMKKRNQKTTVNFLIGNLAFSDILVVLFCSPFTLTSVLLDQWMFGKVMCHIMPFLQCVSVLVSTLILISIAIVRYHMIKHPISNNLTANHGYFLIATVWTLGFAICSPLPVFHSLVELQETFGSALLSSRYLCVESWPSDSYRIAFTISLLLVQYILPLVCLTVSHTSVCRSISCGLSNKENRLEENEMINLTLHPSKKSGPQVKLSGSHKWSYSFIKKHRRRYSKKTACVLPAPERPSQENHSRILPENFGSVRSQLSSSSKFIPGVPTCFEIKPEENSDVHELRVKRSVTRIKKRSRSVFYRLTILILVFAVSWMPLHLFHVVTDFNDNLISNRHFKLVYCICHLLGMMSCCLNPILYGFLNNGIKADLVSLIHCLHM
Method in brief: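 Membrane protein was incubated with 75-100 pM porcine [125I]PYY and test compound for 2 hours at room temperature with constant mixing in pH 7.4 Tris buffer containing NaCl, KCl, CaCl2, MgSO4, 0.1% BSA and bacitracin. Nonspecific binding was defined with 1 μM PYY. Bound radioactivity was counted after filtration.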

Rat NPY5 receptor = target: T2, Rat NPY5 receptor (Rattus norvegicus, UniProt Q63634); experiment: Rat NPY5 receptor binding assay ([125I]PYY, membrane protein); conditions: [125I]PYY binding, read-out: rNPY5 IC50
T2 sequence (Q63634 1-445): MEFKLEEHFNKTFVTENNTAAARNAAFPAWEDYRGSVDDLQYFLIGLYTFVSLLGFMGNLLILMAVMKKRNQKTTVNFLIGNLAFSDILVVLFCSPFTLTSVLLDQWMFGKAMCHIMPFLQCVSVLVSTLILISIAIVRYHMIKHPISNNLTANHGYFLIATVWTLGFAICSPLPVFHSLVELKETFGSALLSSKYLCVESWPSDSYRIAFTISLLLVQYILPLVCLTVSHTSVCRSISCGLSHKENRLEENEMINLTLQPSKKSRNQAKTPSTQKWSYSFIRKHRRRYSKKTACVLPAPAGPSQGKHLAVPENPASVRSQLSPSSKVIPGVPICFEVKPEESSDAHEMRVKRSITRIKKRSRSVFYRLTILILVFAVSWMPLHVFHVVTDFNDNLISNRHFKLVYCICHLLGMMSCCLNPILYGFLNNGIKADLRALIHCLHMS
Protocol: C. Human and Rat NPY5 Receptor Binding Assays
Binding assays are performed on GF/C Millipore 96well plates pretreated with 0.02% polyethylenimine. The binding buffer is 25 mM Tris, 120 mM NaCl, 5 mM KCl, 1.2 mM KH2PO4, 2.5 mM CaCl2, 1.2 mM MgSO4, 0.1% BSA and 0.5 mg/ml bacitracin, pH 7.4. Samples consist of membrane protein, 75-100 pM [125I]PYY (porcine, NEN-DuPont) and drug dilution. Nonspecific binding is defined by 1 μM PYY. After a 2 hour incubation at room temperature with constant mixing, the samples are aspirated on a vacuum manifold, and rinsed with ice-cold binding buffer. The amount of radioactivity in each well is quantitated with either gamma counting or liquid scintillation.

Y2 receptor = target: T3, Y2 receptor (Homo sapiens, UniProt P49146); experiment: Y2 receptor binding assay ([125I]PYY, membrane protein); conditions: [125I]PYY binding, membrane protein; read-out: hNPY2 IC50
T3 sequence (P49146 1-381): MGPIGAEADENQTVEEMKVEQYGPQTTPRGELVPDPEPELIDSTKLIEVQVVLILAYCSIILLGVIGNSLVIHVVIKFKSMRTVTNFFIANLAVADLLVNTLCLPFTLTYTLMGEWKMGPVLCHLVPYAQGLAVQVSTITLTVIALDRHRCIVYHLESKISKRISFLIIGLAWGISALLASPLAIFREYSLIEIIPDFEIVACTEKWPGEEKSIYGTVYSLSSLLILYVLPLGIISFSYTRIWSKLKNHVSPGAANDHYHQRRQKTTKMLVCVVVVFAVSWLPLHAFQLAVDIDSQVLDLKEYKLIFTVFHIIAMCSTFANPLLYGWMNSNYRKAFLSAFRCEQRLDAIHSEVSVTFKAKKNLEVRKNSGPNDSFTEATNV
Method in brief: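 Filtration binding with membrane protein and drug dilution, 2 h at room temperature with mixing, radioactivity counted by gamma or scintillation. Y2: 25 pM [125I]PYY in Krebs-Ringer bicarbonate pH 7.4 with 0.01% BSA, nonspecific by 1 μM NPY. Y4/PP1: 50 pM [125I]hPP in HEPES-buffered saline pH 7.4 with protease inhibitors and 0.3% BSA, nonspecific by 1 μM hPP.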

[1] = [125I]PYY binding, read-out: hNPY5 IC50

| IC50 (Human NPY5 receptor; [1]) | IC50 (Rat NPY5 receptor) | IC50 (Y2 receptor) | Compound | IC50 (Human NPY5 receptor; hNPY5 IC50, [125I]PYY binding) |
| --- | --- | --- | --- | --- |
| 300 nM | 300 nM | – | COC(CNCC(=O)Nc1ccc(C(=O)c2ccccc2)cc1)OC [Compound 5, N-(4-Benzoyl-phenyl)-2-(2,2-dimethoxy-ethylamino)-acetamide] | – |
| 2400 nM | – | > 5 µM | CC1(C)CC(C(N)=O)C(C)(C)N1CC(=O)Nc1ccc(C2CCCCC2)cc1 (stereo not shown) [Compound 114, 1-[(4-Cyclohexyl-phenylcarbamoyl)-methyl] 2,2,5,5-tetramethyl-pyrrolidine-3-carboxylic acid amide] | – |
| 9500 nM | – | > 5 µM | COc1ccc(C(=O)C2CCN(CC(=O)Nc3ccc(C4CCCCC4)cc3)CC2)cc1 [Compound 116, N-(4-Cyclohexyl-phenyl)-2-[4-(4-methoxy-benzoyl)-piperidin-1-yl]-acetamide] | – |
| 3000 nM | – | > 5 µM | O=C(CN1CCC[C@@H]1C(=O)O)Nc1ccc(C2CCCCC2)cc1 [Compound 117, (2R)-1-[(4-Cyclohexyl-phenylcarbamoyl)-methyl]-pyrrolidine-2-carboxylic acid] | – |
| 2000 nM | – | > 5 µM | O=C(CN1CCCC1CO)Nc1ccc(C(=O)c2ccccc2)cc1 (stereo not shown) [Compound 118, N-(4-Benzoyl-phenyl)-2-(2-hydroxymethyl-pyrrolidin-1-yl)-acetamide] | – |
| 3600 nM | – | > 5 µM | CC1(C)CC(C(N)=O)C(C)(C)N1CC(=O)Nc1ccc(C(=O)c2ccccc2)cc1 (stereo not shown) [Compound 119, 1-[(4-Benzoyl-phenylcarbamoyl)-methyl]-2,2,5,5-tetramethyl-pyrrolidine-3-carboxylic acid amide] | – |
| 95 nM | – | > 5 µM | O=C(CN1CCC(C(=O)c2ccc(F)cc2)CC1)Nc1ccc(C(=O)c2ccccc2)cc1 [Compound 121, N-(4-Benzoyl-phenyl)-2-[4-(4-fluoro-benzoyl)-piperidin-1-yl]-acetamide] | – |
| 9900 nM | – | > 5 µM | COc1ccc(C(=O)C2CCN(CC(=O)Nc3ccc(C(=O)c4ccccc4)cc3)CC2)cc1 [Compound 122, N-(4-Benzoyl-phenyl)-2-[4-(4-methoxy-benzoyl)-piperidin-1-yl]-acetamide] | – |
| 910 nM | – | > 5 µM | NC(=O)C1CCCN1CC(=O)Nc1ccc(C(=O)c2ccccc2)cc1 (stereo not shown) [Compound 123, 1-[(4-Benzoyl-phenylcarbamoyl)-methyl]-pyrrolidine-2-carboxylic acid amide] | – |
| 430 nM | – | > 5 µM | O=C(CN1CCCC1C(O)(c1ccccc1)c1ccccc1)Nc1ccc(C(=O)c2ccccc2)cc1 (stereo not shown) [Compound 125, N-(4-Benzoyl-phenyl)-2-[2-(hydroxy-diphenyl-methyl)-pyrrolidin-1-yl]-acetamide] | – |
| 660 nM | 450 nM | – | O=C(CNCc1ccco1)Nc1ccc(C2CCCCC2)cc1 [Compound 160, N-(4-Cyclohexyl-phenyl)-2-[(furan-2-ylmethyl)-amino]-acetamide] | – |
| 610 nM | 730 nM | – | O=C(CNCc1ccco1)Nc1ccc(C(=O)c2ccccc2)cc1 [Compound 166, N-(4-Benzoyl-phenyl)-2-[(furan-2-ylmethyl)-amino]-acetamide] | – |
| 530 nM | 1200 nM | – | O=C(CNc1c(I)cc(C(=O)O)cc1I)Nc1ccc(C(=O)c2ccccc2)cc1 [Compound 171, 4-{[(4-Benzoyl-phenylcarbamoyl)-methyl]-amino)-3,5-diiodo-benzoic acid] | – |
| 2000 nM | 920 nM | – | O=C(CNC(CO)CO)Nc1ccc(C2CCCCC2)cc1 [Compound 173, N-(4-Cyclohexyl-phenyl)-2-(2-hydroxy-1-hydroxymethyl-ethylamino)-acetamide] | – |
| 610 nM | 840 nM | – | O=C(CNCC1CC1)Nc1ccc(C2CCCCC2)cc1 [Compound 174, N-(4-Cyclohexyl-phenyl)-2-(cyclopropylmethyl-amino)-acetamide] | – |
| > 10000 nM | > 10000 nM | – | O=C(CNCCO)Nc1ccc(C2CCCCC2)cc1 [Compound 176, N-(4-Cyclohexyl-phenyl)-2-(2-hydroxy-ethylamino)-acetamide] | – |
| > 10000 nM | > 10000 nM | – | O=C1C=C(NCC(=O)Nc2ccc(C3CCCCC3)cc2)CCC1 [Compound 179, N-(4-Cyclohexyl-phenyl)-2-(3-oxo-cyclohex-1-enylamino)-acetamide] | – |
| 170 nM | 120 nM | – | O=C(O)CC(NCC(=O)Nc1ccc(C2CCCCC2)cc1)C(F)(F)F (stereo not shown) [Compound 180, 3-{[(4-Cyclohexyl-phenylcarbamoyl)-methyl]-amino}-4,4,4-trifluoro-butyric acid] | – |
| 740 nM | 690 nM | – | O=C(CNCC1CC1)Nc1ccc(C(=O)c2ccccc2)cc1 [Compound 184, N-(4-Benzoyl-phenyl)-2-(cyclopropylmethyl-amino)-acetamide] | – |
| 340 nM | 340 nM | – | O=C(O)CC(NCC(=O)Nc1ccc(C(=O)c2ccccc2)cc1)C(F)(F)F (stereo not shown) [Compound 190, 3-{[(4-Benzoyl-phenylcarbamoyl)-methyl]-amino}-4,4,4-trifluoro-butyric acid] | – |
| 270 nM | 250 nM | – | CNC1CCN(CC(=O)Nc2ccc(C3CCCCC3)cc2)C1 (stereo not shown) [Compound 193, N-(4-Cyclohexyl-phenyl)-2-(3-methylamino-pyrrolidin-1-yl)-acetamide] | – |
| 6100 nM | – | > 5 µM | (2R,4R)-1-[(4-Benzoyl-phenylcarbamoyl)-methyl]-4-hydroxy-pyrrolidine-2-carboxylic acid [Compound 101] | – |
| 3800 nM | – | > 5 µM | (2R,4R)-1-[(4-Cyclohexyl-phenylcarbamoyl)-methyl]-4-hydroxy-pyrrolidine-2-carboxylic acid [Compound 90] | – |
| 160 nM | – | > 5 µM | N-(4-Benzoyl-phenyl)-2-(4-benzyl-4-hydroxy-piperidin-1-yl)-acetamide [Compound 111] | – |

| Compound | IC50 (Human NPY5 receptor; [1]) | IC50 (Rat NPY5 receptor) | IC50 (Y2 receptor) | IC50 (Human NPY5 receptor; hNPY5 IC50, [125I]PYY binding) |
| --- | --- | --- | --- | --- |
| C=C(C)[C@@H]1CN(CC(=O)Nc2ccc(C3CCCCC3)cc2)[C@H](C(=O)O)[C@@H]1CC(=O)O [Compound 115, (2S,3R,4R)-3-Carboxymethyl-1-[(4-cyclohexyl-phenylcarbamoyl)-methyl]-4-isopropenyl-pyrrolidine-2-carboxylic acid] | – | – | > 5 µM | > 10000 nM |
| C=C(C)C1CN(CC(=O)Nc2ccc(C(=O)c3ccccc3)cc2)C(C(=O)O)C1CC(=O)O (stereo not shown) [Compound 120, 1-[(4-Benzoyl-phenylcarbamoyl)-methyl]-3-carboxymethyl-4-isopropenyl-pyrrolidine-2-carboxylic acid] | – | – | > 5 µM | > 10000 nM |
| O=C(CNc1c(I)cc(C(=O)O)cc1I)Nc1ccc(C2CCCCC2)cc1 [Compound 165, 4-{[(4-Cyclohexyl-phenylcarbamoyl)-methyl]-amino)-3,5-diiodo-benzoic acid anion] | 1100 nM | 700 nM | – | – |
| N-(4-Benzoyl-phenyl)-2-[4-(4-bromo-phenyl)-4-hydroxy-piperidin-1-yl]-acetamide [Compound 89] | 520 nM | – | > 5 µM | – |
| N-(4-Cyclohexyl-phenyl)-2-[4-hydroxy-4-(3-trifluoromethyl-phenyl)-piperidin-1-yl]-acetamide [Compound 62] | 420 nM | – | > 5 µM | – |
